pIC50: −log10 of the molar value.
Target: T1, Chemerin-like receptor 1 (Homo sapiens, UniProt Q99788)
T1 sequence (Q99788 whole entry): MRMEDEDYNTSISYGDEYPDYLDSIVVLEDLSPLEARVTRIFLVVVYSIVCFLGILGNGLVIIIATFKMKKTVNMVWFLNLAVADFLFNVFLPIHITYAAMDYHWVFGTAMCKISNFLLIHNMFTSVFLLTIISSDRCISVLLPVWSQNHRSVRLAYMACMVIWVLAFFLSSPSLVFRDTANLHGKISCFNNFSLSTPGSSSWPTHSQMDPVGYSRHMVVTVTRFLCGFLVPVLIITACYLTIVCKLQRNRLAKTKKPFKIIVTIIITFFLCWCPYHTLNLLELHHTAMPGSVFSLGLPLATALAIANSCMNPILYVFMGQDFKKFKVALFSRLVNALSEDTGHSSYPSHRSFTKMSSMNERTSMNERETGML
Assay: Displacement of [125I]-chemerin from ChemR23 (unknown origin) transfected in mouse BaF3 cells after 3 hrs by scintillation counting method
Assay type: cell-based

pIC50 | Structure (SMILES)
≥ 7.52 | Cc1cccc(C)c1N1C[C@]2(C(=O)Nc3cc(C(F)(F)F)cc(C(F)(F)F)c3)CC[C@@H]2C1=O
6.52 to 7.52 | Cc1cccc(C)c1N1CC(C(=O)Nc2cc(C#N)cc(C(F)(F)F)c2)CC1=O (configuration not stated)
5.22 to 6.52 | Cc1cccc(C)c1N1C[C@]2(C(=O)Nc3cc(C(F)(F)F)cc(C(F)(F)F)c3)CC=CC[C@@H]2C1=O
≥ 7.52 | CCc1cccc(C)c1N1CC(C(=O)Nc2cc(C(F)(F)F)cc(C(F)(F)F)c2)CC1=O (configuration not stated)
5.22 to 6.52 | Cc1cccc(C)c1N1CC(C(=O)Nc2cccc(C#N)c2)CC1=O (configuration not stated)
≥ 7.52 | Cc1cccc(C)c1N1CC(C(=O)Nc2cc(C(F)(F)F)cc(C(F)(F)F)c2)(N(C)C)CC1=O (configuration not stated)
5.22 to 6.52 | Cc1cccc(C)c1N1CC(C(=O)Nc2ccc(Cl)c(C(F)(F)F)c2)CC1=O (configuration not stated)
6.52 to 7.52 | Cc1cccc(C)c1N1CC(C(=O)Nc2cc(N3CCOCC3)cc(C(F)(F)F)c2)CC1=O (configuration not stated)
6.52 to 7.52 | COc1cccc(C)c1N1CC(C(=O)Nc2cc(F)cc(F)c2)CC1=O (configuration not stated)
5.22 to 6.52 | Cc1cccc(C)c1N1CC2(C(=O)Nc3cc(C(F)(F)F)cc(C(F)(F)F)c3)COCCC2C1=O (configuration not stated)
5.22 to 6.52 | Cc1cccc(C)c1N1CC2(C(=O)Nc3cc(C(F)(F)F)cc(C(F)(F)F)c3)CC2C1=O (configuration not stated)
6.52 to 7.52 | Cc1cccc(C)c1N1CC(C(=O)Nc2cc(N3CCCCC3)cc(C(F)(F)F)c2)CC1=O (configuration not stated)
6.52 to 7.52 | COC(=O)c1cc(NC(=O)C2CC(=O)N(c3c(C)cccc3C)C2)cc(C(F)(F)F)c1 (configuration not stated)
5.22 to 6.52 | Cc1cccc(C)c1N1CC(C(=O)Nc2cc(C3CC3)cc(C(F)(F)F)c2)CC1=O (configuration not stated)
6.52 to 7.52 | Cc1cccc(C)c1N1CC2(C(=O)Nc3cc(C(F)(F)F)cc(C(F)(F)F)c3)COCC2C1=O (configuration not stated)
≥ 7.52 | CO[C@H]1CC2C(=O)N(c3c(C)cccc3C)CC2(C(=O)Nc2cc(C(F)(F)F)cc(C(F)(F)F)c2)C1 (some centres not stated)
6.52 to 7.52 | Cc1cccc(Cl)c1N1CC(C(=O)Nc2cc(C(F)(F)F)cc(C(F)(F)F)c2)CC1=O (configuration not stated)
6.52 to 7.52 | Cc1cc(F)cc(C)c1N1CC(C(=O)Nc2cc(C(F)(F)F)cc(C(F)(F)F)c2)CC1=O (configuration not stated)
≥ 7.52 | Cc1cccc(C)c1N1CC2(C(=O)Nc3cc(C(F)(F)F)cc(C(F)(F)F)c3)CCCC2C1=O (configuration not stated)
6.52 to 7.52 | Cc1cccc(C)c1N1CC2(C(=O)Nc3cc(C(F)(F)F)cc(C(F)(F)F)c3)C[C@@H](F)CC2C1=O (some centres not stated)
6.52 to 7.52 | Cc1ccc(C)c(N2CC(C(=O)Nc3cc(C(F)(F)F)cc(C(F)(F)F)c3)CC2=O)c1 (configuration not stated)
5.22 to 6.52 | CCc1cccc(C)c1N1CC(C(=O)Nc2ccc(C(F)(F)F)cc2)CC1=O (configuration not stated)
6.52 to 7.52 | Cc1cccc(C)c1N1CC(C(=O)Nc2cc(Cl)cc(C(F)(F)F)c2)CC1=O (configuration not stated)

pIC50 | Structure (SMILES)
5.22 to 6.52 | CCc1cccc(C)c1N1CC(C(=O)Nc2ccc(OC)c(C(F)(F)F)c2)CC1=O (configuration not stated)
5.22 to 6.52 | O=C(Nc1cc(C(F)(F)F)cc(C(F)(F)F)c1)C1CC(=O)N(c2ccccc2)C1 (configuration not stated)
6.52 to 7.52 | Cc1ccc(N2CC(C(=O)Nc3cc(C(F)(F)F)cc(C(F)(F)F)c3)CC2=O)c(C)c1 (configuration not stated)
≥ 7.52 | Cc1cccc(C)c1N1CC(C(=O)Nc2cc(C(F)(F)F)cc(C(F)(F)F)c2)CC1=O (configuration not stated)
≥ 7.52 | CNC1(C(=O)Nc2cc(C(F)(F)F)cc(C(F)(F)F)c2)CC(=O)N(c2c(C)cccc2C)C1 (configuration not stated)
5.22 to 6.52 | CCc1cccc(C)c1N1CC(C(=O)Nc2ccc(C)c(C(F)(F)F)c2)CC1=O (configuration not stated)
5.22 to 6.52 | Cc1cccc(C)c1N1CC(C(=O)Nc2cc(F)cc(F)c2)CC1=O (configuration not stated)
≥ 7.52 | Cc1cccc(C)c1N1CC(NC(C)C)(C(=O)Nc2cc(C(F)(F)F)cc(C(F)(F)F)c2)CC1=O (configuration not stated)
5.22 to 6.52 | Cc1cccc(C)c1N1CC(C(=O)Nc2cc(Cl)cc(C#N)c2)CC1=O (configuration not stated)
5.22 to 6.52 | Cc1cccc(C)c1N1CC(C(=O)Nc2cccc(Cl)c2)CC1=O (configuration not stated)
5.22 to 6.52 | Cc1cccc(S(C)(=O)=O)c1N1CC(C(=O)Nc2cc(C(F)(F)F)cc(C(F)(F)F)c2)CC1=O (configuration not stated)
5.22 to 6.52 | CCc1cccc(C)c1N1CC(C(=O)Nc2cccc(Cl)c2)CC1=O (configuration not stated)
6.52 to 7.52 | Cc1cccc(C)c1N1C[C@]2(C(=O)Nc3cc(C(F)(F)F)cc(C(F)(F)F)c3)OCC[C@@H]2C1=O
6.52 to 7.52 | Cc1ccccc1N1CC(C(=O)Nc2cc(C(F)(F)F)cc(C(F)(F)F)c2)CC1=O (configuration not stated)
≥ 7.52 | Cc1cccc(C)c1N1C[C@@](C)(C(=O)Nc2cc(Cl)cc(Cl)c2)[C@H](C)C1=O
≥ 7.52 | Cc1cccc(C)c1N1CC2(C(=O)Nc3cc(C(F)(F)F)cc(C(F)(F)F)c3)CC=CCC2C1=O (configuration not stated)
5.22 to 6.52 | Cc1cccc(Br)c1N1CC(C(=O)Nc2cccc(C(F)(F)F)c2)CC1=O (configuration not stated)
5.22 to 6.52 | Cc1cccc(C)c1N1CC(C(=O)Nc2cccc(C(F)(F)F)c2)CC1=O (configuration not stated)
6.52 to 7.52 | CC[C@@]1(C(=O)Nc2ccc(C)c(C(F)(F)F)c2)CN(c2c(C)cccc2C)C(=O)[C@H]1C
6.52 to 7.52 | Cc1cccc(C)c1N1CC(C(=O)Nc2cc(N3CCCC3)cc(C(F)(F)F)c2)CC1=O (configuration not stated)
5.22 to 6.52 | CCc1cccc(C)c1N1CC(C(=O)Nc2ccc(F)c(C(F)(F)F)c2)CC1=O (configuration not stated)
≥ 7.52 | Cc1cccc(C)c1N1C[C@]2(C(=O)Nc3cc(C(F)(F)F)cc(C(F)(F)F)c3)CCO[C@@H]2C1=O
6.52 to 7.52 | Cc1cccc(C)c1N1CC(C(=O)Nc2cc(Cl)cc(Cl)c2)CC1=O (configuration not stated)

pIC50 | Structure (SMILES)
5.22 to 6.52 | CCc1cccc(C)c1N1CC(C(=O)Nc2cccc(C(F)(F)F)c2)CC1=O (configuration not stated)
6.52 to 7.52 | CC(C)c1ccccc1N1CC(C(=O)Nc2cc(C(F)(F)F)cc(C(F)(F)F)c2)CC1=O (configuration not stated)
5.22 to 6.52 | CCc1cccc(NC(=O)C2CC(=O)N(c3c(C)cccc3C)C2)c1 (configuration not stated)
6.52 to 7.52 | Cc1cccc(C)c1N1CC2(C(=O)Nc3cc(C(F)(F)F)cc(C(F)(F)F)c3)CCCCC2C1=O (configuration not stated)
5.22 to 6.52 | Cc1cccc(F)c1N1CC(C(=O)Nc2cccc(Cl)c2)CC1=O (configuration not stated)
6.52 to 7.52 | Cc1cccc(C)c1N1CC2(C(=O)Nc3cc(C(F)(F)F)cc(C(F)(F)F)c3)CC(N3CCCC3)CC2C1=O (configuration not stated)
≥ 7.52 | Cc1cccc(C2CC2)c1N1CC(C(=O)Nc2cc(C(F)(F)F)cc(C(F)(F)F)c2)CC1=O (configuration not stated)
6.52 to 7.52 | CC[C@@]1(C(=O)Nc2cc(Cl)cc(C#N)c2)CN(c2c(C)cccc2C)C(=O)[C@H]1C
6.52 to 7.52 | CCc1ccccc1N1CC(C(=O)Nc2cc(C(F)(F)F)cc(C(F)(F)F)c2)CC1=O (configuration not stated)
≥ 7.52 | CO[C@@H]1CC2C(=O)N(c3c(C)cccc3C)CC2(C(=O)Nc2cc(C(F)(F)F)cc(C(F)(F)F)c2)C1 (some centres not stated)
≥ 7.52 | Cc1cccc(C)c1N1CC2(C(=O)Nc3cc(C(F)(F)F)cc(C(F)(F)F)c3)COC=CC2C1=O (configuration not stated)
5.22 to 6.52 | Cc1cccc(C)c1N1CC(C(=O)Nc2ccc(Cl)c(Cl)c2)CC1=O (configuration not stated)
≥ 7.52 | Cc1cccc(C)c1N1CC(C(=O)Nc2cc(C(F)(F)F)cc(C(F)(F)F)c2)(N2CCOCC2)CC1=O (configuration not stated)
6.52 to 7.52 | COc1cc(NC(=O)C2CC(=O)N(c3c(C)cccc3C)C2)cc(C(F)(F)F)c1 (configuration not stated)
5.22 to 6.52 | Cc1ccccc1N1CC(C(=O)Nc2cccc(C(F)(F)F)c2)CC1=O (configuration not stated)
≥ 7.52 | Cc1cccc(C)c1N1CC2(C(=O)Nc3cc(C(F)(F)F)cc(C(F)(F)F)c3)C[C@H](F)CC2C1=O (some centres not stated)
5.22 to 6.52 | Cc1cccc(C)c1N1CC(C(=O)Nc2ccc(Cl)cc2Cl)CC1=O (configuration not stated)
≥ 7.52 | Cc1cccc(C)c1N1CC(C(=O)Nc2cc(C(F)(F)F)cc(C(F)(F)F)c2)(N2CCCC2)CC1=O (configuration not stated)
6.52 to 7.52 | Cc1cccc(C)c1N1CC2(C(=O)Nc3cc(C(F)(F)F)cc(C(F)(F)F)c3)CC(O)CC2C1=O (configuration not stated)
≥ 7.52 | Cc1cccc(C)c1N1CC2(C(=O)Nc3cc(C(F)(F)F)cc(C(F)(F)F)c3)CC(F)(F)CC2C1=O (configuration not stated)
6.52 to 7.52 | Cc1cccc(N2CC(C(=O)Nc3cc(C(F)(F)F)cc(C(F)(F)F)c3)CC2=O)c1C (configuration not stated)
